The results in this text go back to US12582657B2, “Combination therapy including a KRAS G12C inhibitor and one or more additional pharmaceutically active agents for the treatment of cancers” (Amgen Inc., priority 2018, dated 2026).

What all share (assay): Basal ERK1/2 phosphorylation assay (MSD)
Common to all, as to format: cell-based

In assay [1] the test system is ERK1/2 phosphorylation in SW1463 cells. The note with it: Homo sapiens; SW1463, colon, KRAS p.G12C homozygous; 2-hour treatment. On the procedure: (§1) For cellular assays, 2.5E+04 cells were seeded per well in 96-well plates and incubated at 37° C., 5% CO2, o/n. The following day, 3-fold serially-diluted compound or DMSO was added to the cells, and the plates were incubated at 37° C., 5% CO2 for 2 hours. […] Signal intensity corresponded with phospho-ERK1/2 levels and was normalized DMSO control.

Assay [2] deals with ERK1/2 phosphorylation in NCI-H23 cells. As to conditions: Homo sapiens; NCI-H23, lung, KRAS p.G12C heterozygous; 2-hour treatment. The protocol:
as §1

In assay [3] the test system is ERK1/2 phosphorylation in NCI-H1373 cells. As to conditions: Homo sapiens; NCI-H1373, lung, KRAS p.G12C homozygous; 2-hour treatment. The protocol:
as §1

The test system of assay [4] is ERK1/2 phosphorylation in A549 cells. The note with it: Homo sapiens; A549, lung, KRAS p.G12S homozygous; 2-hour treatment. The protocol:
as §1

Assay [5] concerns ERK1/2 phosphorylation in UM-UC-3 cells. The note with it: Homo sapiens, UMUC3; UM-UC-3, bladder, KRAS p.G12C homozygous; 2-hour treatment. The protocol: as §1
For assay [6], the system named is ERK1/2 phosphorylation in NCI-H1792 cells. The note with it: Homo sapiens; NCI-H1792, lung, KRAS p.G12C heterozygous; 2-hour treatment. The protocol:
as §1

Assay [7] deals with ERK1/2 phosphorylation in COLO-205 cells. As to conditions: Homo sapiens; COLO-205, colon, KRAS WT BRAF p.V600E; 2-hour treatment. The protocol:
as §1

`C=CC(=O)N1CCN(c2nc(=O)n(-c3c(C)ccnc3C(C)C)c3nc(-c4c(O)cccc4F)c(F)cc23)[C@@H](C)C1` (atropisomer, axis not shown) [AMG 510, 6-fluoro-7-(2-fluoro-6-hydroxyphenyl)-1-(4-methyl-2-(2-propanyl)-3-pyridinyl)-4-((2S)-2-methyl-4-(2-propenoyl)-1-piperazinyl)pyrido[2,3-d]pyrimidin-2(1H)-one]: the IC50 is 33 ± 4 nM in assay [1]; 90 ± 17 nM in assay [2]; 10 ± 0.1 nM in assay [3]; > 10000 nM in assay [4]; 29 ± 16 nM in assay [5]; 45 ± 23 nM in assay [6]. Also, in assay [7], the IC50 was > 10000 nM.

Broadly, the IC50 is the midpoint of a concentration-inhibition curve. A high value points to weaker potency.
